Data published in PMC5533163 (Medicines, 2015).
Where two headings read alike, the source gives them in different places.

Tests used:
[1] = target: T1, CYP2C9 (Homo sapiens, UniProt P11712); experiment: Reversible inhibition of recombinant CYP2C9; assay type: in vitro ADME; conditions: recombinant enzyme, 100–0.4 µM, data not shown
T1 construct: purchased BD Gentest (Woburn, MA, USA)
Protocol: (§1) The assay conditions for determining reversible and time dependent inhibition of CYPs were similar as reported earlier. Test samples or positive controls were serially diluted in a solution (100 µL) of cofactors mix, control protein (0.05 mg of protein/mL) and Glucose-6-phosphate dehydrogenase (G6PDH) to achieve six concentrations (100–0.4 µM). To account for any inherent fluorescence, the plates were incubated at 37 °C for 10 min and fluorescence readings were taken. Enzyme substrate mixture (100 µL) was added to initiate the reaction and the plates were further incubated for 15 (CYP1A2), 30 (CYP3A4, 2C9 and 2C19) or 45 min (CYP2D6). The reaction was stopped by the addition of 75 µL of acetonitrile/0.5M Tris base (80:20). Fluorescence was measured on Spectramax M5 plate reader (Molecular Devices, Sunnyvale, CA, USA) at specified excitation and emission wavelengths for each substrate. IC50 values (co-incubation assay) were obtained from concentration-response curves generated by plotting log concentration versus % control.

[2] = target: T2, CYP2C19 (Homo sapiens, UniProt P33261); experiment: Reversible inhibition of recombinant CYP2C19; assay type: in vitro ADME; conditions: recombinant enzyme, 100–0.4 µM, data not shown
T2 construct: purchased BD Gentest (Woburn, MA, USA)
Protocol: as §1

[3] = target: T3, CYP1A2 (Homo sapiens, UniProt P05177); experiment: Inhibition of recombinant CYP1A2; assay type: in vitro ADME; conditions: recombinant enzyme
T3 construct: purchased BD Gentest (Woburn, MA, USA)

[4] = target: T4, P-gp (Homo sapiens, UniProt P08183); experiment: P-gp inhibition, calcein-AM uptake in hMDR1-MDCK-II and MDCK-II cells; assay type: cell-based; conditions: calcein-AM 1 µM, mean ± SD of three experiments
T4 construct: host or cells: hMDR1-MDCK-II (canine kidney cells transfected with human MDR1)

[5] = humans, cited from earlier work
[6] = target: T5, CYP3A4 (Homo sapiens, UniProt P08684); experiment: Reversible (co-incubation) and time dependent (pre-incubation) inhibition of recombinant CYP3A4, fluorescent substrate BFC; assay type: in vitro ADME; design: purchased BD Gentest (Woburn, MA, USA); conditions: based on IC50 shift ratio criterion > 1.5
[7] = target: T6, CYP2D6 (Homo sapiens, UniProt P10635); experiment: Reversible (co-incubation) and time dependent (pre-incubation) inhibition of recombinant CYP2D6, fluorescent substrate AMMC; assay type: in vitro ADME; design: purchased BD Gentest (Woburn, MA, USA); conditions: for IC50: recombinant enzyme, mean ± SD of three experiments
[8] = target: T5, CYP3A4; assay type: in vitro ADME; design: The reaction was initiated by the addition of HLM (0.6 mg/mL protein); tissue Corning Life Sciences (Cambridge, MA, USA); host or cells: pooled human liver microsomes, 25 donors, mixed gender; conditions: Lineweaver-Burk plot, testosterone metabolism
[9] = target: T6, CYP2D6; experiment: Reversible inhibition and enzyme kinetics of CYP2D6 in pooled HLM (dextromethorphan to dextrorphan); assay type: in vitro ADME; design: The reaction was initiated by the addition of HLM (0.6 mg/mL protein); tissue Corning Life Sciences (Cambridge, MA, USA); host or cells: pooled human liver microsomes, 25 donors, mixed gender; conditions: for Type of inhibition of CYP2D6 in HLM: Lineweaver-Burk plot

T6 sequence (P10635 whole entry): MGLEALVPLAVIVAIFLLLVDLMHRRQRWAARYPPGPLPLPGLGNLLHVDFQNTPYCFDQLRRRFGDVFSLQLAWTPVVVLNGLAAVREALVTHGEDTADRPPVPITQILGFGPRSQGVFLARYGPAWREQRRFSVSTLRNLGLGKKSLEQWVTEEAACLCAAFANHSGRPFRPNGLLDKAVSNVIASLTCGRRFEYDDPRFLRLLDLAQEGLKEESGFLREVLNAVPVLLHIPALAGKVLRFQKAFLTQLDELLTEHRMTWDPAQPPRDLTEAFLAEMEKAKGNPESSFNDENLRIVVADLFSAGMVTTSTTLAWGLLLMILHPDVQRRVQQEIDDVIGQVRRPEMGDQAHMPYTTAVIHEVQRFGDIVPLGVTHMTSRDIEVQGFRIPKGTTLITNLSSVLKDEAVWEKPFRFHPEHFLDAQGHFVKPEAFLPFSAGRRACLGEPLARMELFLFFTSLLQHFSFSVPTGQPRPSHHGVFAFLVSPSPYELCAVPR
T5 sequence (P08684 whole entry): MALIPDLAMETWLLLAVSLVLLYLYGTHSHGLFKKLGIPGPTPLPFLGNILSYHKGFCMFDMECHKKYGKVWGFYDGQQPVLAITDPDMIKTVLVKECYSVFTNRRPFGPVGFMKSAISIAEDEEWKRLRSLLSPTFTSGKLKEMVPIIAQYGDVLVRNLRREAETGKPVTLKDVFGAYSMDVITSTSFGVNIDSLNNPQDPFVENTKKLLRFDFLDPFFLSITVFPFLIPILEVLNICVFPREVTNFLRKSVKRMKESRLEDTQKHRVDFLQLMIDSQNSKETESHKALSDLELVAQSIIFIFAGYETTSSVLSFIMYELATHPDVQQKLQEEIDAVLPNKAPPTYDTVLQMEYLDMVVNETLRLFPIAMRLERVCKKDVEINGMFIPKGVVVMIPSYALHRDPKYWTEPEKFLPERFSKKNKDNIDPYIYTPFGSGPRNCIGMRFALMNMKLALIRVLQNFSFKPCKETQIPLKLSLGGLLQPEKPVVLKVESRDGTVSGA
T1 sequence (P11712 whole entry): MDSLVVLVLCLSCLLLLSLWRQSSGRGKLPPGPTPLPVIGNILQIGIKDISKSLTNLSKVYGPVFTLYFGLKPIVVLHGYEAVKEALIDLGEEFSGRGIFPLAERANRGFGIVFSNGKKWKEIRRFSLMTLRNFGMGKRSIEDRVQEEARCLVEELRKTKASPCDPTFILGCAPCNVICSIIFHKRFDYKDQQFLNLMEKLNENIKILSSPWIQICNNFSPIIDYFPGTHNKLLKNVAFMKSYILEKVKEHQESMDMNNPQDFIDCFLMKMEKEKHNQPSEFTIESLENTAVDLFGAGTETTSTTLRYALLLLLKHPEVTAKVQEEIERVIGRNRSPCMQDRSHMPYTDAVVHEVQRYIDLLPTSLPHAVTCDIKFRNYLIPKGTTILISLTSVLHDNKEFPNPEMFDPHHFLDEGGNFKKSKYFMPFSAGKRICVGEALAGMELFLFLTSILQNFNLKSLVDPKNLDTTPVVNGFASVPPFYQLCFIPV
T2 sequence (P33261 whole entry): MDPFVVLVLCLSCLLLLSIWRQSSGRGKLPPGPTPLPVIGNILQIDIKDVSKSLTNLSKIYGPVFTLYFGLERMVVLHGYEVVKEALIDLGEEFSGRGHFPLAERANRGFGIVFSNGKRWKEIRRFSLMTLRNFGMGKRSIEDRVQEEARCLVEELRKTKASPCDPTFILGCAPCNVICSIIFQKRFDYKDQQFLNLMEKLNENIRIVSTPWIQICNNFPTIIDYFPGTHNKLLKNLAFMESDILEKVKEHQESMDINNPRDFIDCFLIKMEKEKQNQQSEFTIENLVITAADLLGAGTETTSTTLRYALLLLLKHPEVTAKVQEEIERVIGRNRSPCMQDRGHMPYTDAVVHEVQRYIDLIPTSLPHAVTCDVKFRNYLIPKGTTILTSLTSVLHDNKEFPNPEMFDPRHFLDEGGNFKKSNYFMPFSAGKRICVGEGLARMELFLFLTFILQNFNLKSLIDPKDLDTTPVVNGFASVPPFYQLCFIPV
T3 sequence (P05177 whole entry): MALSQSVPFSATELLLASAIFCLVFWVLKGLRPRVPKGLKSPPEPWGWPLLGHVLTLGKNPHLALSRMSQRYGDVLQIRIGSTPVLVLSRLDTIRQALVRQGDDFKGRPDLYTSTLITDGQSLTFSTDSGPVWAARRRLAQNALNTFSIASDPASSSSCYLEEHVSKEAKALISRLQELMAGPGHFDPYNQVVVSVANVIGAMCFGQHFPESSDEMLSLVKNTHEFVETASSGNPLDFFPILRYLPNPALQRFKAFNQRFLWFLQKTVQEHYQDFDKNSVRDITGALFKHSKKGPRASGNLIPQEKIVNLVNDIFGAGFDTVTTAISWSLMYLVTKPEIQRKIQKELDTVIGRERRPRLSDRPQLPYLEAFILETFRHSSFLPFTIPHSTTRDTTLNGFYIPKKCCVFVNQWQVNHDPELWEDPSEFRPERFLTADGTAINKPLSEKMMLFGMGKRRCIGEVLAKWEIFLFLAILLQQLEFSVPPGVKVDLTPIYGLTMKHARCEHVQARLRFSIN
T4 sequence (P08183 whole entry): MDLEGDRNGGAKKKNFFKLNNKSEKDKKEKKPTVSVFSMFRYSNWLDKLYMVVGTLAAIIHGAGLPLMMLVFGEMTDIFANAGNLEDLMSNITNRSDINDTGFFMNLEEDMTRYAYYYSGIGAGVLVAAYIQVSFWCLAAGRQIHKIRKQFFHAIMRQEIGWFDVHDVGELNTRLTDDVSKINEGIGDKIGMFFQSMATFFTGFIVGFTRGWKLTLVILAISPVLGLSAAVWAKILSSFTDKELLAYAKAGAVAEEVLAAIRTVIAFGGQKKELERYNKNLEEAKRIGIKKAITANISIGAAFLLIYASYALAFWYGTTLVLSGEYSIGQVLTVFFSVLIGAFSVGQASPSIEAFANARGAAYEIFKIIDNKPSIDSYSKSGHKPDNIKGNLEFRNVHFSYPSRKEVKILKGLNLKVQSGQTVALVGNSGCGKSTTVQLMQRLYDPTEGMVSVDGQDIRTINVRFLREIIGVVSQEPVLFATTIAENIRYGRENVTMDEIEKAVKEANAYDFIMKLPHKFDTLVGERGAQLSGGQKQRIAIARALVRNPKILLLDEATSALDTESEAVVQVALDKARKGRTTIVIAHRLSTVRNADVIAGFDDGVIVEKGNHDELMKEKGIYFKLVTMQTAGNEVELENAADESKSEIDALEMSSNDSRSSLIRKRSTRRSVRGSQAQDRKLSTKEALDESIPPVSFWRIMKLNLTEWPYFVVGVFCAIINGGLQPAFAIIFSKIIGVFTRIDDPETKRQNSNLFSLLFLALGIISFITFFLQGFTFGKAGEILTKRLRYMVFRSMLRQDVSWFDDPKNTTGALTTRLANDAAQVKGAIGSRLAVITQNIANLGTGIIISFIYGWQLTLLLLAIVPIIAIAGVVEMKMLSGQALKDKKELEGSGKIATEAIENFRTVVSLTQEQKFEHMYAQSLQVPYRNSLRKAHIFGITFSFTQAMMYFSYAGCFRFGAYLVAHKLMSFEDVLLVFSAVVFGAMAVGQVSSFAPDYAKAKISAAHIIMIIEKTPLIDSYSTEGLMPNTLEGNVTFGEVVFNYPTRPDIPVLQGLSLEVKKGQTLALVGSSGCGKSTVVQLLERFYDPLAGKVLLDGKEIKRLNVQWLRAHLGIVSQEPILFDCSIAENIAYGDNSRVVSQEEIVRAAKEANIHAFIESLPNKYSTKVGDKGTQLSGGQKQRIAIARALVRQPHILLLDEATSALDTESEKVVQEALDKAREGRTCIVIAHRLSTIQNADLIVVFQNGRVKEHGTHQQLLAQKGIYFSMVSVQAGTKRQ

Inhibition of CYP2C9 [1]: no activity | Inhibition of CYP2C9 ([1]; listed as vinpocetine): No inhibition | Inhibition of CYP2C19 [2]: no activity | Inhibition of CYP2C19 ([2]; listed as vinpocetine): No inhibition | Inhibition of CYP1A2 [3]: no activity | EC50 [4]: 8 µM | Time dependent inhibition (TDI) of CYP3A4 [6]: no TDI | Time dependent inhibition (TDI) of CYP2D6 ([7]; based on IC50 shift ratio criterion > 1.5): no TDI | IC50 ([7]; 30 min pre-incubation (TDI assay), read-out: CYP2D6 (recombinant) IC50 Pre-incubation): 37 ± 1.6 µM | IC50 ([7]; co-incubation (reversible inhibition), read-out: CYP2D6 (recombinant) IC50 Co-incubation): 6.5 ± 1.1 µM | Type of inhibition of CYP3A4 in HLM [8]: competitive inhibition | Type of inhibition of CYP3A4 in HLM ([8]; listed as vinpocetine): competitive | Type of inhibition of CYP2D6 in HLM ([9]; dextromethorphan metabolism): non-competitive inhibition | Type of inhibition of CYP2D6 in HLM ([9]; dextromethorphan metabolism, listed as vinpocetine): competitive | IC50 at 20 min ([9]; human, pooled human liver microsomes, pH 7.4, probe dextromethorphan (to dextrorphan), pooled HLM, dextromethorphan as probe substrate): 19 µM | Ki ([9]; pooled HLM, dextromethorphan metabolism, Dixon plot): 26 µM
Compound: CCOC(=O)C1=C[C@]2(CC)CCCN3CCc4c(n1c1ccccc41)[C@@H]32 [Vinpocetine, ethyl apovincaminate]
Maximum plasma concentration (Cmax) ([5]; oral): 60 ng/mL | Oral bioavailability [5]: 6%
